Measurements: patent US20250129021A1, “SMALL MOLECULE PROTEIN SYNTHESIS MODULATORS” (Interdict Bio, Inc., priority 2023, published 2025)
Like-named read-outs stand apart in the source and are kept apart here.

Columns and labels:
MYC = experiment: In vitro transcription-translation (IVTT) assay, MYC reporter; assay type: biochemical; conditions: HeLa S3 lysate, 2 hrs at 30° C.
Method in brief: (§1)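 Reporter: mCherry, P2A, then 3×FLAG-target peptide-sfGFP fusion, IRES-initiated; HeLa S3 lysate IVTT; cpd dilutions 30 μM−0.1 μM half-log in 100% DMSO (dilution-plate conc); DNA added last; 2 h, 30° C; PBS quench.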

ALK = experiment: In vitro transcription-translation (IVTT) assay, ALK reporter; assay type: biochemical; conditions: HeLa S3 lysate, sfGFP/mCherry ratio, 2 hrs at 30° C.
Method in brief: as §1

MS751 = experiment: Cell viability (CellTiter-Fluor), MS751; assay type: cell-based; conditions: 24-72 hrs
Method: (§2) Count and dispense 2,000-10,000 cells per well (100 μL volume) in black 96-well tissue culture microplate and let cells adhere overnight. Add compound dissolved in 100% DMSO to each well as needed and incubate cells in standard culture conditions for 24-72 hrs. Final DMSO concentration in each well should be 0.1-0.5%. At the desired time point, gently aspirate compound containing media and replace with PBS to wash. Repeat wash step for 2 total washes. Remove PBS and add 100 μL CellTiter-Fluor reagent (Promega) reagent to each well. Seal plate and incubate 1 hr at room temperature with orbital shaking. Analyze fluorescence using plate reader to quantify viable cells compared with vehicle (DMSO) control.

KLE = experiment: Cell viability (CellTiter-Fluor), KLE; assay type: cell-based; conditions: Homo sapiens, 24-72 hrs
Method: as §2

NCI-H1915 = experiment: Cell viability (CellTiter-Fluor), NCI-H1915; assay type: cell-based; conditions: 24-72 hrs
Method: as §2

MCL-1 = experiment: In vitro transcription-translation (IVTT) assay, MCL-1 reporter; assay type: biochemical; conditions: HeLa S3 lysate, 2 hrs at 30° C.
Method in brief: as §1

T47D = experiment: Cell viability (CellTiter-Fluor), T47D; assay type: cell-based; conditions: Homo sapiens, 24-72 hrs
Method: as §2

HPAF-II = experiment: Cell viability (CellTiter-Fluor), HPAF-II; assay type: cell-based; conditions: Homo sapiens, 24-72 hrs
Method: as §2

KRAS G12D = experiment: In vitro transcription-translation (IVTT) assay, KRAS G12D reporter; assay type: biochemical; conditions: HeLa S3 lysate, sfGFP/mCherry ratio, 2 hrs at 30° C.
Method in brief: as §1

HCC38 = experiment: Cell viability (CellTiter-Fluor), HCC38; assay type: cell-based; conditions: Homo sapiens, 24-72 hrs
Method: as §2

MCF7 = experiment: Cell viability (CellTiter-Fluor), MCF7; assay type: cell-based; conditions: Homo sapiens, 24-72 hrs
Method: as §2

KATO-III = experiment: Cell viability (CellTiter-Fluor), KATO-III; assay type: cell-based; conditions: Homo sapiens, 24-72 hrs
Method: as §2

LS411N = experiment: Cell viability (CellTiter-Fluor), LS411N; assay type: cell-based; conditions: Homo sapiens, LS-411N, 24-72 hrs
Method: as §2

HEK 293T = experiment: Cell viability (CellTiter-Fluor), HEK 293T; assay type: cell-based; conditions: Homo sapiens, 24-72 hrs
Method: as §2

BCL-2 = experiment: In vitro transcription-translation (IVTT) assay, BCL-2 reporter; assay type: biochemical; conditions: HeLa S3 lysate, sfGFP/mCherry ratio, 2 hrs at 30° C.
Method in brief: as §1

CCND1 = experiment: In vitro transcription-translation (IVTT) assay, CCND1 reporter; assay type: biochemical; conditions: HeLa S3 lysate, 2 hrs at 30° C.
Method in brief: as §1

HEPG2 = experiment: Cell viability (CellTiter-Fluor), HEPG2; assay type: cell-based; conditions: Homo sapiens, 24-72 hrs
Method: as §2

STING = experiment: In vitro transcription-translation (IVTT) assay, STING reporter; assay type: biochemical; conditions: HeLa S3 lysate, 2 hrs at 30° C.
Method: (§3) Each preparation takes 8 cell pellets (4 ml packed volume each, approximately 1.0×10^9 cells per pellet). Thaw cell pellets from −80° C. on ice for 90 mins. Lay pellets horizontally on top of the ice and rotate every 30 mins to ensure even thawing. Once thawed, add 4 mL of cold lysis buffer to each pellet, and using a serological pipet, gently pipet up and down to break up clumps. Incubate resuspended cells in ice for an additional 30 mins (plunged into ice). During 30 min incubation, rinse and RNase-zap (Ambion) glass dounces (use loose pestle “A”), gently dry and place on ice until needed. Prepare RNase-free Eppendorf tubes for spinning and for batch storage. […]
(§4) In vitro transcription-translation assay setup: Each assay includes a master mix containing lysate and shared components, a 96-well plate containing compound titrations for testing, a 96-well DNA plate with reporter constructs to be tested, 96-well skirted PCR plates, and 96-well flat-bottom, black, fluorescent assay plates. […] After 2 hrs, quench the assay using 45 μL of PBS, and transfer 50 μL to a flat-bottom black microplate Quantify the sfGFP and mCherry signals from each well on each plate, taking 3 reads of each plate, and perform data analysis below.
(§5) In vitro transcription-translation assay data analysis: Each plate is read three times in channels for both sfGFP and mCherry signals. […]

JAK1 = experiment: In vitro transcription-translation (IVTT) assay, JAK1 reporter; assay type: biochemical; conditions: HeLa S3 lysate, 2 hrs at 30° C.
Method: as §3, §4, §5

CCNTB1 = experiment: In vitro transcription-translation (IVTT) assay, CCNTB1 reporter; assay type: biochemical; conditions: HeLa S3 lysate, 2 hrs at 30° C.
Method in brief: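 HeLa S3 lysate-based coupled transcription-translation reactions with reporter plasmids, compounds in half-log dilutions (30 μM−0.1 μM, in DMSO), 2 h at 30° C. sfGFP/mCherry ratio, corrected for no-DNA background, normalized to no-drug control and fitted for IC50.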

cGAS = experiment: In vitro transcription-translation (IVTT) assay, cGAS reporter; assay type: biochemical; conditions: HeLa S3 lysate, 2 hrs at 30° C.
Method: as §3, §4, §5

NFKB1 = experiment: In vitro transcription-translation (IVTT) assay, NFKB1 reporter; assay type: biochemical; conditions: HeLa S3 lysate, 2 hrs at 30° C.
Method: as §3, §4, §5

[1] = IVTT assay, MYC reporter, normalized sfGFP/mCherry ratio, half-log dilutions 30 μM-0.1 μM

IC50 (MYC; sfGFP/mCherry ratio) | IC50 (NCI-H1915) | IC50 (MCL-1; sfGFP/mCherry ratio) | IC50 (T47D) | IC50 (HCC38) | IC50 (MCF7) | IC50 (BCL-2) | IC50 (CCND1; sfGFP/mCherry ratio) | IC50 (HEPG2) | SMILES | IC50 (ALK) | IC50 (MS751) | IC50 (KLE) | IC50 (HPAF-II) | IC50 (KRAS G12D) | IC50 (KATO-III) | IC50 (LS411N) | IC50 (HEK 293T) | further results
< 10000 nM | 250 to 1000 nM | < 10000 nM | 250 to 1000 nM | 250 to 1000 nM | 250 to 1000 nM | < 10000 nM | < 10000 nM | 1000 to 4000 nM | COc1ccc(C[C@H]2NC[C@H](O)[C@H]2OC(=O)NCCc2cn[nH]c2)cc1 [V187509, (2R,3S,4S)-4-hydroxy-2-[(4-methoxyphenyl)methyl]pyrrolidin-3-yl N-[2-(1H-pyrazol-4-yl)ethyl]carbamate] |  | < 250 nM | 250 to 1000 nM | 250 to 1000 nM | < 10000 nM | 250 to 1000 nM | 250 to 1000 nM | < 250 nM | 
< 10000 nM | 1000 to 4000 nM | < 10000 nM | 1000 to 4000 nM | 1000 to 4000 nM | 1000 to 4000 nM |  | < 10000 nM | 1000 to 4000 nM | COc1ccc(C[C@H]2NC[C@H](O)[C@H]2OC(=O)NCc2c[nH]nn2)cc1 [V187536, (2R,3S,4S)-4-hydroxy-2-[(4-methoxyphenyl)methyl]pyrrolidin-3-yl N-(1H-1,2,3-triazol-4-ylmethyl) carbamate; trifluoroacetic acid] | < 10000 nM | 250 to 1000 nM | 1000 to 4000 nM | 1000 to 4000 nM | < 10000 nM | 1000 to 4000 nM | 1000 to 4000 nM | 250 to 1000 nM | 
< 10000 nM | < 250 nM | < 10000 nM | < 250 nM | 250 to 1000 nM | < 250 nM | < 10000 nM | < 10000 nM | 1000 to 4000 nM | COc1ccc(C[C@H]2NC[C@H](O)[C@H]2OC(=O)NCc2ccncc2)cc1 [V187987, (2R,3S,4S)-4-hydroxy-2-[(4-methoxyphenyl)methyl]pyrrolidin-3-yl N-(pyridin-4-ylmethyl)carbamate] |  | 250 to 1000 nM | 250 to 1000 nM | 250 to 1000 nM |  | 250 to 1000 nM | < 250 nM | < 250 nM | 
 |  |  |  |  |  |  |  |  | O=C(NCc1ccccc1)O[C@@H]1[C@@H](O)CN[C@@H]1Cc1ccc(-c2ccc3c(c2)CNC3)cc1 [V188347, (2R,3S,4S)-2-{[4-(2,3-dihydro-1H-isoindol-5-yl)phenyl]methyl}-4-hydroxypyrrolidin-3-yl N-benzylcarbamate] |  |  |  |  |  |  |  |  | IC50 (MYC; [1]): < 10000 nM; IC50 (STING): < 10000 nM; IC50 (JAK1): < 10000 nM; IC50 (CCNTB1): < 10000 nM; IC50 (CCND1; IVTT): < 10000 nM; IC50 (MCL-1; IVTT, read-out: MCL1 IC50): < 10000 nM; IC50 (cGAS): < 10000 nM; IC50 (NFKB1): < 10000 nM
 |  |  |  |  |  |  |  |  | O=C(NCc1cccc(F)c1)O[C@@H]1[C@@H](O)CN[C@@H]1Cc1ccc(-c2cnco2)cc1 [V190545, (2R,3S,4S)-4-hydroxy-2-{[4-(1,3-oxazol-5-yl)phenyl]methyl}pyrrolidin-3-yl N-[(3-fluorophenyl)methyl]carbamate] |  |  |  |  |  |  |  |  | IC50 (MYC; [1]): < 10000 nM; IC50 (STING): < 10000 nM; IC50 (JAK1): < 10000 nM; IC50 (CCNTB1): < 10000 nM; IC50 (CCND1; IVTT): < 10000 nM; IC50 (MCL-1; IVTT, read-out: MCL1 IC50): < 10000 nM; IC50 (cGAS): < 10000 nM

SMILES | IC50 (MYC; sfGFP/mCherry ratio) | IC50 (NCI-H1915) | IC50 (MCL-1; sfGFP/mCherry ratio) | IC50 (T47D) | IC50 (HCC38) | IC50 (MCF7) | IC50 (BCL-2) | IC50 (CCND1; sfGFP/mCherry ratio) | IC50 (HEPG2) | IC50 (ALK) | IC50 (MS751) | IC50 (KLE) | IC50 (HPAF-II) | IC50 (KRAS G12D) | IC50 (KATO-III) | IC50 (LS411N) | IC50 (HEK 293T) | further results
COc1ccc(C[C@H]2NC[C@H](O)[C@H]2OC(=O)NCC2CC2)cc1 [V187189, (2R,3S,4S)-4-hydroxy-2-[(4-methoxyphenyl)methyl]pyrrolidin-3-yl N-(cyclopropylmethyl)carbamate; trifluoroacetic acid] | < 10000 nM | 250 to 1000 nM | < 10000 nM | 250 to 1000 nM | 250 to 1000 nM | 250 to 1000 nM |  |  |  | < 10000 nM | 250 to 1000 nM | 250 to 1000 nM | 250 to 1000 nM | < 10000 nM | 250 to 1000 nM | < 250 nM | < 250 nM | 
COc1ccc(C[C@H]2NC[C@H](O)[C@H]2OC(=O)NCc2ccccc2)cc1 [V187190, (2R,3S,4S)-4-hydroxy-2-[(4-methoxyphenyl)methyl]pyrrolidin-3-yl N-benzylcarbamate; trifluoroacetic acid] | < 10000 nM | < 250 nM | < 10000 nM | < 250 nM | 250 to 1000 nM | < 250 nM | < 10000 nM | < 10000 nM | < 250 nM | < 10000 nM | < 250 nM | < 250 nM | 250 to 1000 nM | < 10000 nM | < 250 nM | < 250 nM | < 250 nM | 
